# Test results taken from publication PMC7714403 (JCI Insight, 2020).
# Read-outs that look alike come from different tables or passages of the source.
# Assays:
# Experiment in all cases: KiNativ, MOLM13 live cells
# Assay type in all cases: cell-based
# ATR = ATR (Homo sapiens, UniProt Q13535); details: MOLM-13; 100 nM, 2 hours; ATP; read-out: Inhibition vs DMSO
# Protocol: (§1) Samples were analyzed by KiNativ in situ kinase profiling by ActivX Biosciences.
# CSK = CSK (Homo sapiens, UniProt P41240); details: 100 nM, 2 hours; Activation Loop
# CSK, sequence (P41240 whole entry): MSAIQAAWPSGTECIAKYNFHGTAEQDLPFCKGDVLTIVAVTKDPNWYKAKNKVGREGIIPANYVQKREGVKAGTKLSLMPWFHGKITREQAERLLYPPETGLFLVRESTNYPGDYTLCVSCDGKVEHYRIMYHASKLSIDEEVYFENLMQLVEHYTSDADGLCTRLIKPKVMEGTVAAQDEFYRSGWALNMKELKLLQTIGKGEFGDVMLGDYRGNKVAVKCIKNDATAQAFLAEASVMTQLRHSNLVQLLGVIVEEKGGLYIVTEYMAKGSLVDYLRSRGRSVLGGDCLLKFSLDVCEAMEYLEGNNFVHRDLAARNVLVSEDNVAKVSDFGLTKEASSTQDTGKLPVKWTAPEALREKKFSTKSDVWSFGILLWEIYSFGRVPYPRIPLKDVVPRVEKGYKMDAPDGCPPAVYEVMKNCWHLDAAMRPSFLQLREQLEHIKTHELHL
# Protocol: as §1
# DGKA = DGKA (Homo sapiens, UniProt P23743); details: MOLM-13; 100 nM, 2 hours; ATP; read-out: Inhibition vs DMSO
# DGKA, sequence (P23743 whole entry): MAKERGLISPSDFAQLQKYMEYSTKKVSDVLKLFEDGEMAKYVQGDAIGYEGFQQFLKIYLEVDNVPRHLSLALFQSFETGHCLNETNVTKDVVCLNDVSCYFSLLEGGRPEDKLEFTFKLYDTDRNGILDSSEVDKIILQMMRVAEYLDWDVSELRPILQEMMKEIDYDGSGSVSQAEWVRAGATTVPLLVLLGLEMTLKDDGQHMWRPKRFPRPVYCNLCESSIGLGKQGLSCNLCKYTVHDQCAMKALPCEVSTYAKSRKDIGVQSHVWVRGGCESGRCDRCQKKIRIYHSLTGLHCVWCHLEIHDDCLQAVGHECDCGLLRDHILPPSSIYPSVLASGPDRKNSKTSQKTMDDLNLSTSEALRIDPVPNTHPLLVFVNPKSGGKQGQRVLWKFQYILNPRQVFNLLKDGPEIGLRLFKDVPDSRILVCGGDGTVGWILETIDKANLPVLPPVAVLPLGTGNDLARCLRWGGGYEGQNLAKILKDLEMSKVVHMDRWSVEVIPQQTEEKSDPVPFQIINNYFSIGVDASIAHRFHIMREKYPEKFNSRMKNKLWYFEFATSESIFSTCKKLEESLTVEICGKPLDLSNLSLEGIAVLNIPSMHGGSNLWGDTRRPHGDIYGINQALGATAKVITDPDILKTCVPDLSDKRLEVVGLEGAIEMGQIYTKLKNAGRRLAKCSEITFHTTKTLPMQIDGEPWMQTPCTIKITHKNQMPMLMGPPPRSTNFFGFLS
# Protocol: as §1
# DGKH = DGKH (Homo sapiens, UniProt Q86XP1); details: MOLM-13; 100 nM, 2 hours; ATP; read-out: Inhibition vs DMSO
# DGKH, sequence (Q86XP1 whole entry): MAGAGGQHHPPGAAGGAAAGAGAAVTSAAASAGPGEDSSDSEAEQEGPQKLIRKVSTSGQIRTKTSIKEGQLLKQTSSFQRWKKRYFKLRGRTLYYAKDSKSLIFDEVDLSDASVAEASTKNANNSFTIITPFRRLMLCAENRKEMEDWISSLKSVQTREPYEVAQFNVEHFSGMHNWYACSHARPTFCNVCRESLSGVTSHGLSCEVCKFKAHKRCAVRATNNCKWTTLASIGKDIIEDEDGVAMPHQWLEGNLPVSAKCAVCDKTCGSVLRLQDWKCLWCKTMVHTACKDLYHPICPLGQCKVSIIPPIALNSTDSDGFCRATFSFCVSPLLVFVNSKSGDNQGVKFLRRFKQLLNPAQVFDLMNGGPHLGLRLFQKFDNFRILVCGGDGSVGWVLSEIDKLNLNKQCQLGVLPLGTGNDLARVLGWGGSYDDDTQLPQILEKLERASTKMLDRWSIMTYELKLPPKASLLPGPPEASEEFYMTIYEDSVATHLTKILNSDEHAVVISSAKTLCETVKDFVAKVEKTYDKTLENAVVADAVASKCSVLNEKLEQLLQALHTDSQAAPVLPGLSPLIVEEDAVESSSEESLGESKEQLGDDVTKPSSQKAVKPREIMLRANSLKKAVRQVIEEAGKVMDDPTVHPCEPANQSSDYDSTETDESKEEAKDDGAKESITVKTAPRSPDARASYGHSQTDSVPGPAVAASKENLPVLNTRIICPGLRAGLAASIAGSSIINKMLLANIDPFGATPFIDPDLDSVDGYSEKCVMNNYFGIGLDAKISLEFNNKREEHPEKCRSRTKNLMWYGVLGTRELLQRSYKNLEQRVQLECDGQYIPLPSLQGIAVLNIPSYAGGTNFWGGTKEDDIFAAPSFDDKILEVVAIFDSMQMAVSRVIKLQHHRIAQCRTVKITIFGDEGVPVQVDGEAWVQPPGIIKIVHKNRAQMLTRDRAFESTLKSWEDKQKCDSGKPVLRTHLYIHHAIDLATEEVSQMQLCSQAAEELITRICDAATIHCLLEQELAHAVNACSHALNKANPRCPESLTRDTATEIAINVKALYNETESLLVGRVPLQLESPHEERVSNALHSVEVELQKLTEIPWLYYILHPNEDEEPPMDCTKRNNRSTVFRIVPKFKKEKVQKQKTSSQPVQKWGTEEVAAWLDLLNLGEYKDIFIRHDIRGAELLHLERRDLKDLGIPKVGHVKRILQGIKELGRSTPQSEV
# Protocol: as §1
# GSK3A = GSK3A (Homo sapiens, UniProt P49840); details: MOLM-13; 100 nM, 2 hours; Lys2; read-out: Inhibition vs DMSO
# GSK3A, sequence (P49840 whole entry): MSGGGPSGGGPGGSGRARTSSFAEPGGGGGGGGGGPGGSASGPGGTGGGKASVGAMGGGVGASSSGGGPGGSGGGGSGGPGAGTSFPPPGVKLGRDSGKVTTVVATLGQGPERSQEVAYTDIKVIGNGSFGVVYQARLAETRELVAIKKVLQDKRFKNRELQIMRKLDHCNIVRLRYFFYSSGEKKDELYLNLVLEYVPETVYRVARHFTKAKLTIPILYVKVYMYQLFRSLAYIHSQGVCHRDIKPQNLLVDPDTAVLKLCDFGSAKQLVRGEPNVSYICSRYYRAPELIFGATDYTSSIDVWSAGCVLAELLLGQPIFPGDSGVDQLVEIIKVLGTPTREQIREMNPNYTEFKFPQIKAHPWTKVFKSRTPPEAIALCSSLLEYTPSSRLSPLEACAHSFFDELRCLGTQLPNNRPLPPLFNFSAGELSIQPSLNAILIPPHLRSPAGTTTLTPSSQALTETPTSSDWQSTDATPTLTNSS
# Protocol: as §1
# LYN = LYN (Homo sapiens, UniProt P07948); details: MOLM-13; 100 nM, 2 hours; Activation Loop; read-out: Inhibition vs DMSO
# LYN, sequence (P07948 whole entry): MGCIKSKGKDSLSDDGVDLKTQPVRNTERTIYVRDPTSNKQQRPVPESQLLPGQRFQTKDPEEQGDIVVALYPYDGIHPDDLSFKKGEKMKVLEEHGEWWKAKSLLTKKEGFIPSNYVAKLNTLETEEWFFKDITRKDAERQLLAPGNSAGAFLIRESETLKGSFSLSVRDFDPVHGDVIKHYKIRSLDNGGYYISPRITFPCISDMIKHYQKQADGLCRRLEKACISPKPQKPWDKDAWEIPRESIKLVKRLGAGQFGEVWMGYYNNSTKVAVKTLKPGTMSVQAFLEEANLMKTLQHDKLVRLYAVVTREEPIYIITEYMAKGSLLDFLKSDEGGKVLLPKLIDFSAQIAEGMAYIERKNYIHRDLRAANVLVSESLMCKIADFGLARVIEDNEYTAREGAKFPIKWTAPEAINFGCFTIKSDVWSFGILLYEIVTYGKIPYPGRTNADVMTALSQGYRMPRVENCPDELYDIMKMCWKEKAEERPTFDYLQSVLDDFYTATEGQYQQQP
# Protocol: as §1
# MAP2K6 = target: T1, MAP2K6 (Homo sapiens, UniProt P52564); details: MOLM-13, 2 h, 100 nM
# T1 sequence (P52564 1-334): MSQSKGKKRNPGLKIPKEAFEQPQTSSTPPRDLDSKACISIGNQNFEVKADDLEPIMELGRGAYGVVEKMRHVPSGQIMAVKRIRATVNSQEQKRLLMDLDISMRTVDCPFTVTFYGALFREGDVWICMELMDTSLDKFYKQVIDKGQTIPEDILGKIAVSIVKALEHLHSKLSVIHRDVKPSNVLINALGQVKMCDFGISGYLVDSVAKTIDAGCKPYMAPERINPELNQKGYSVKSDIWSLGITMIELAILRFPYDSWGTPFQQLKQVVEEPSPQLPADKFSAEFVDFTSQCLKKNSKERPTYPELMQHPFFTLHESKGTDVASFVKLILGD
# Protocol: as §1
# PAN3 = target: T2, PAN3 (Homo sapiens, UniProt Q58A45); details: MOLM-13, 2 h, 100 nM, ATP, read-out: Inhibition vs DMSO
# T2 sequence (Q58A45 1-887): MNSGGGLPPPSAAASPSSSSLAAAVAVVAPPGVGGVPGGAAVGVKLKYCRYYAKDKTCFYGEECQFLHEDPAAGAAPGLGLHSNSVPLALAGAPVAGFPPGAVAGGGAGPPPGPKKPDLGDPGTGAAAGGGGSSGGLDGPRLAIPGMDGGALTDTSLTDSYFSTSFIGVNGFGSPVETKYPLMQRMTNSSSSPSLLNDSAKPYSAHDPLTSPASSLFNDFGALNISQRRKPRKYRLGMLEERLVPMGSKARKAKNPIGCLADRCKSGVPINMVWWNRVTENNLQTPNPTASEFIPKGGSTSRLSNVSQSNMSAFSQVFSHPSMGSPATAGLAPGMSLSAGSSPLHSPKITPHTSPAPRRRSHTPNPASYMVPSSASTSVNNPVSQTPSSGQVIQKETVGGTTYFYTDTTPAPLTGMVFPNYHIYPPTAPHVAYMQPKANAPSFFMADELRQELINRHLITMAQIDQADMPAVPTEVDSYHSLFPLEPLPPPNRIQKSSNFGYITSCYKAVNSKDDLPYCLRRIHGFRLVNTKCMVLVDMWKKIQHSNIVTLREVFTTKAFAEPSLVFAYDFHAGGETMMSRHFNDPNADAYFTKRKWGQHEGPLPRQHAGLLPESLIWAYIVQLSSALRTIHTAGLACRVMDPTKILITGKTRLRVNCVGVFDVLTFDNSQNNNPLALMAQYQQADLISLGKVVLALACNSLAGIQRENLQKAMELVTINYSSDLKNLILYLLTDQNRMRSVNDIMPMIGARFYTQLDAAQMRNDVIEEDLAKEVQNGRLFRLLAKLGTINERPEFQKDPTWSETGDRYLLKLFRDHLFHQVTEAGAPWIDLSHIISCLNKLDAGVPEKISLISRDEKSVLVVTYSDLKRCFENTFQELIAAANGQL
# Protocol: as §1
# RSK2 domain1 = target: T3, RSK2 domain1 (Homo sapiens, UniProt P51812); details: MOLM-13, 2 h, 100 nM
# T3 construct: RSK2 domain1
# T3 sequence (P51812 whole entry, the tested form may be a part): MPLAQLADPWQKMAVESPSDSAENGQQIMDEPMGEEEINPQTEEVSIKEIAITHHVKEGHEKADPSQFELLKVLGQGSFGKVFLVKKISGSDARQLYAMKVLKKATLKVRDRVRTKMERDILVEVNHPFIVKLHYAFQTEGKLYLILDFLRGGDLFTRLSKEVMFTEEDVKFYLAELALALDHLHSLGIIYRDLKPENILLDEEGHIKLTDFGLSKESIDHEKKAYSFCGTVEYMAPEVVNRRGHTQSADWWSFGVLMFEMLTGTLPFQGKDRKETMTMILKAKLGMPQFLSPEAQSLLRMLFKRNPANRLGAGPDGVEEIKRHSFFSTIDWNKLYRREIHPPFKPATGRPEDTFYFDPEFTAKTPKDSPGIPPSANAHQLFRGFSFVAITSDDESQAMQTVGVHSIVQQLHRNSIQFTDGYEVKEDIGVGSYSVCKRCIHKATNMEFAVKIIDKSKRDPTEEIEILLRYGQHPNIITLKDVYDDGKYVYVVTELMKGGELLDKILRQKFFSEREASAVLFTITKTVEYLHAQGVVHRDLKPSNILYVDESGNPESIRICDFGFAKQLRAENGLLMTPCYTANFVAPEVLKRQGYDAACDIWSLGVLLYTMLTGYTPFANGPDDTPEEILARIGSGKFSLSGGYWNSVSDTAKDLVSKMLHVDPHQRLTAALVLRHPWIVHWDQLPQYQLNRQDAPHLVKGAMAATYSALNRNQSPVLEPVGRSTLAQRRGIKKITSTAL
# Protocol: as §1
# [1] = Lys2, read-out: Inhibition vs DMSO
smiles,measurement,setting,value
CN1CCN(Cc2ccc(Nc3ncc(Cl)c(Nc4ccccc4S(=O)(=O)N(C)C)n3)cc2)CC1 [TP-0903],inhibition at 0.1 µM,ATR,7.6%
same,Inhibition vs DMSO,CSK,-5.0%
same,inhibition at 0.1 µM,DGKA,-9.4%
same,inhibition at 0.1 µM,DGKH,-1.3%
same,inhibition at 0.1 µM,GSK3A,-8.9%
same,inhibition at 0.1 µM,LYN,58.8%
same,inhibition at 0.1 µM,"MAP2K6; Lys1, read-out: Inhibition vs DMSO",-2.4%
same,inhibition at 0.1 µM,MAP2K6; [1],-11.9%
same,inhibition at 0.1 µM,PAN3; IQKSSNFGYITSCYK,11.2%
same,inhibition at 0.1 µM,PAN3; VMDPTKILITGK,-0.5%
same,inhibition at 0.1 µM,"RSK2 domain1; Activation Loop, read-out: Inhibition vs DMSO",22.7%
same,inhibition at 0.1 µM,RSK2 domain1; [1],-0.9%
